Test results: US4554281A, “2-Amino-3-acylamino-6-benzylamino-pyridine-derivative having antiepileptic action” (priority 1982, dated 1985)

Experiments:
[1] = s.c. Met - Subcutaneous Pentetrazole (Metrazole) Test (anticonvulsive action, intraperitoneal); format: in vivo, mouse (male Carworth Farms Mice); details: in vivo, ip; mouse, intraperitoneal; number below the slanting line; read-out: quotient TD 50/ED 50 (MET), therapeutic breadth
Protocol: (§1) All experiments were carried out with male Carworth Farms Mice.
(§2) The materials were tested in three dosages (30, 100, 300 mg/kg) (600 mg/kg was co-tested if a sufficient amount of the material was present). The materials in each case were dissolved in 30% aqueous polyethylene glycol solution.
(§3) The absence of a clearly noticeable attack, (single occurrence of a […] spasm lasting 5 seconds) based on the previous intraperitoneal application of the test substances evaluated as protective action (the test substances were applied intraperitoneally before the application of pentetrazole). The results were represented as follows: number of animals having protective action/total number of test animals

mouse [2] = experiment: as above; format: in vivo, mouse (male Carworth Farms Mice); details: ip, read-out: Metrazole-Test (MET) ED 50
Protocol: as §1, §2, §3

[3] = MES - Maximum Electroshock Attack Test (anticonvulsive action, intraperitoneal); format: in vivo, mouse (male Carworth Farms Mice); details: in vivo, ip; mouse, intraperitoneal; number below the slanting line; read-out: quotient TD 50/ED 50 (MES), therapeutic breadth
Protocol: as §1, §2
(§4) A maximum electroshock attack was obtained through alternating current (60 Hz, 50 m A intensity) with which the mouse was irritated for 0.2 seconds via corneal electrodes. A 5-7 times weaker intensity of irritation was sufficient to produce a minimum electroshock-attack. One drop of 0.9% aqueous NaCl solution was given before applying the electrodes into the eyes in order to guard against killing the animals. The test substances were dispersed intraperitoneally before the irritation. […] the tonic stretching components of the attack (rear extremities) was regarded as protective action. The results were represented as follows:
(§5) number of animals having protective action/total number of test animals

mouse [4] = experiment: as above; format: in vivo, mouse (male Carworth Farms Mice); details: ip, read-out: Maximum Electro-Shock (MES) ED 50
Protocol: as §1, §2, §4, §5

[5] = TD 50 - Neurotoxicity, rotating rod; design: species or system mouse (male Carworth Farms Mice); details: in vivo, ip, mouse, intraperitoneal
Protocol: TD 50: is the ED 50 for the behavior of the mouse on the experimental
model of the rotating rod in mg/kg with intraperitoneal application. The
TD 50 is a measure for the undesired neurotoxic side effect.
as §1, §2
The test on the rotating rod was referred to for the evaluation of the neurotoxicity. The animals were placed on a rotating (6 rotations per minute) plastic rod having a diameter of 2.54 cm. […] An animal was characterized as neurologically toxic if it fell from the rotating rod within one minute.
number of animals which fell/total number of test animals

[6] = Oral acute toxicity (LD 50) according to Miller & Tainter; design: species or system white mouse; details: in vivo, mouse, per os, observation time 24 hours
Protocol: Examples for the toxicity on the mouse per se (expressed as LD 50 in mg/kg are as follows: […]
The determination of the oral toxicity on the white mouse was carried out in the international procedure according to Miller & Tainter (Proc. Soc., Exper. Biol. a Med. Vol. 57, page 261 et. seq. (1944)) with an observation time of 24 hours. The toxicity was stated as LD 50 in mg/kg.

Structure (SMILES): CCOC(=O)Nc1ccc(NCc2ccccc2)nc1N.Cl [D 7175, 2-amino-3-carbethoxyamino-6-benzylamino-pyridine-hydrochloride]
- selectivity ratio [1]: 4.8
- ED50 (mouse [2]; Mus musculus): 9.46 mg/kg
- selectivity ratio [3]: 2.3
- ED50 (mouse [4]; Mus musculus): 19.7 mg/kg
- TD50 [5]: 45.6 mg/kg
- LD50 at 24 h [6]: 402 mg/kg

Structure (SMILES): CCOC(=O)Nc1ccc(NCc2ccc(F)cc2)nc1N.Cl [D 9998, 2-amino-3-carbethoxyamino-6-(4-fluorobenzylamino)-pyridine-hydrochloride]
- selectivity ratio [1]: 1.86
- ED50 (mouse [2]; mouse, intraperitoneal, s.c. pentetrazole 85 mg/kg): 20.3 mg/kg
- selectivity ratio [3]: 1.67
- ED50 (mouse [4]; mouse, intraperitoneal): 22.5 mg/kg
- TD50 [5]: 37.7 mg/kg
- LD50 at 24 h [6]: 617 mg/kg

Structure (SMILES): CCOC(=O)Nc1ccc(NCc2ccc(Cl)cc2)nc1N.Cl [D 9389, 2-amino-3-carbethoxyamino-6-(4-chlorobenzylamino)-pyridine-hydrochloride]
- selectivity ratio [1]: 2.39
- ED50 (mouse [2]; Mus musculus): 10 mg/kg
- selectivity ratio [3]: 1.64
- ED50 (mouse [4]; Mus musculus): 14.6 mg/kg
- TD50 [5]: 23.9 mg/kg
- LD50 at 24 h [6]: 1250 to 1500 mg/kg

Structure (SMILES): CCOC(=O)Nc1ccc(NCc2ccc(C(C)=O)cc2)nc1N [D 10 558, 2-amino-3-carbethoxyamino-6-(4-methylcarbonyl-benzylamino)-pyridine]
- selectivity ratio [1]: 4
- ED50 (mouse [2]; Mus musculus): 18.4 mg/kg
- selectivity ratio [3]: 1.37
- ED50 (mouse [4]; Mus musculus): 53.8 mg/kg
- TD50 [5]: 73.9 mg/kg

Structure (SMILES): CCOC(=O)Nc1ccc(NCc2c(C)cc(C)cc2C)nc1N.Cl [D 10 328, 2-amino-3-carbethoxyamino-6-(2,4,6-trimethyl-benzylamino)pyridine-hydrochloride]
- selectivity ratio [1]: 1.08
- ED50 (mouse [2]; Mus musculus): 1.01 mg/kg
- selectivity ratio [3]: 0.55
- ED50 (mouse [4]; Mus musculus): 1.97 mg/kg
- TD50 [5]: 1.09 mg/kg
- LD50 at 24 h [6]: 127 mg/kg

Structure (SMILES): CCOC(=O)Nc1ccc(NCc2ccc(S(N)(=O)=O)cc2)nc1N [D 9805, 2-amino-3-carbethoxyamino-6-(4-aminosulfonyl-benzylamino)-pyridine]
- selectivity ratio [1]: 0.96
- ED50 (mouse [2]; Mus musculus): 550 mg/kg
- selectivity ratio [3]: 4.9
- ED50 (mouse [4]; Mus musculus): 108 mg/kg
- TD50 [5]: 530 mg/kg

Structure (SMILES): CC(=O)Nc1ccc(NCc2ccc(F)cc2)nc1N.Cl [D 13 223, 2-amino-3-acetamino-6-(4-fluoro-benzylamino)-pyridine-hydrochloride]
- selectivity ratio [1]: 2.14
- ED50 (mouse [2]; Mus musculus): 93.8 mg/kg
- selectivity ratio [3]: 2.38
- ED50 (mouse [4]; Mus musculus): 84.3 mg/kg
- TD50 [5]: 201 mg/kg

Structure (SMILES): CCOC(=O)Nc1ccc(NCc2ccc(C(F)(F)F)cc2)nc1N.Cl [D 11 208, 2-amino-3-carbethoxyamino-6-(4-trifluoromethyl-benzylamino)-pyridine-hydrochloride]
- selectivity ratio [1]: 6.81
- ED50 (mouse [2]; Mus musculus): 11.2 mg/kg
- selectivity ratio [3]: 2.73
- ED50 (mouse [4]; Mus musculus): 27.9 mg/kg
- TD50 [5]: 76.3 mg/kg

Structure (SMILES): CCOC(=O)Nc1ccc(NCc2cccc(F)c2)nc1N.Cl [D 10 981, 2-amino-3-carbethoxyamino-6-(3-fluorobenzylamino)-pyridine-hydrochloride]
- selectivity ratio [1]: 3.61
- ED50 (mouse [2]; Mus musculus): 9.07 mg/kg
- selectivity ratio [3]: 1.9
- ED50 (mouse [4]; Mus musculus): 17.2 mg/kg
- TD50 [5]: 32.7 mg/kg
- LD50 at 24 h [6]: 2060 mg/kg

Structure (SMILES): CCOC(=O)Nc1ccc(NCc2ccc(NC(C)=O)cc2)nc1N.Cl [D 9663, 2-amino-3-carbethoxyamino-6-(4-methylcarbonylamino-benzylamino)-pyridine-hydrochloride]
- selectivity ratio [1]: 2.49
- ED50 (mouse [2]; Mus musculus): 57.2 mg/kg
- selectivity ratio [3]: 1.15
- ED50 (mouse [4]; Mus musculus): 124 mg/kg
- TD50 [5]: 142 mg/kg
